By EC50 is commonly meant the concentration needed to bring the measured effect to its halfway point. Low values mean greater potency, high ones weaker potency.

Where “and” joins values, the source holds several entries; their conditions need not be identical. Equal values may be shown once. Read-outs that look alike come from different tables or passages of the source. Some results are limits rather than exact numbers.

Data set [1] deals with P-gp.
In the next data set the test system is MDR1 mRNA. The settings on record: LS-180 cells, 48 h, 50 μM.
Data set [2] relates to P-gp. Description: in vitro. The conditions noted are these: human, EC50 to up-regulate P-gp activity.
Data set [3] concerns P-gp. Kind of data set: Western blot analysis of P-gp protein expression in drug-treated LS-180 cells. A general note: A western blot detects proteins with antibodies after separation by electrophoresis.
Data set [4] has as its system P-gp. The settings on record: rat, three-day in vivo treatment, 20 mg/kg once daily; cited from earlier work.
For data set [5], the system named is P-gp. Kind of data set: in vitro. The settings on record: human, EC50 to up-regulate P-gp expression.
For data set [6] the following is noted: ref Facts & Comparisons 4.0, online edition, cited from earlier work.

In the case of `C1CCc2nnnn2CC1` [Pentylenetetrazole, pentylenetetrazole], the “induction in P-gp activity” value with P-gp [1] (LS-180 cells, 48 h, 50 μM) stood at 70%. Further, the “increase in P-gp activity” value with P-gp [1] (LS-180 cells, 48 h, concentration range 25–100 μM) is on record as ~ 80%; in the data set on P-gp [1] (LS-180 cells, 48 h, concentration range 25–100 μM, listed as pentylenetetrazole), 80%. For the same compound, the “Emax (fold ↑ in P-gp activity)” value in the data set on P-gp [1] (LS-180 cells, 48 h, four-parameter Hill fit) worked out at 2.0 fold. In addition, in the data set on MDR1 mRNA, the “fold increase in MDR1 mRNA level” value is ~ 3 fold and 3–4 fold. Further, the EC50 at 48 h in the data set with P-gp [2] is 11.8 µM; in the data set with P-gp [3] (human, EC50 to up-regulate P-gp expression, following normalization to 100%) it was above 50 µM. The “increase in P-gp expression” value in the data set with P-gp [3] (48 h, 50 μM) is on record as ~ 10%; with P-gp [3] (48 h, 100 μM) it was 100%. The “up-regulation of P-gp protein levels” value in the data set with P-gp [3] (48 h, concentrations at 50 μM and higher) is reported as at most 2 fold.

For the compound hyperforin, the “increase in P-gp activity” value is listed as 110% in the data set with P-gp [1] (LS-180 cells, 48 h, 50 nM) and 190% in the data set on P-gp [1] (LS-180 cells, 48 h, 150 nM).

For `CC(C)c1nc(CN(C)C(=O)N[C@H](C(=O)N[C@@H](Cc2ccccc2)C[C@H](O)[C@H](Cc2ccccc2)NC(=O)OCc2cncs2)C(C)C)cs1` [ritonavir], the “increase in P-gp expression at the BBB” value in the data set on P-gp [4] is recorded as 30%.

In turn, `C[C@@H]1C[C@H]2[C@@H]3CCC4=CC(=O)C=C[C@]4(C)[C@@]3(F)[C@@H](O)C[C@]2(C)[C@@]1(O)C(=O)CO` [Dexamethasone, dexamethasone] showed a half-maximal effective concentration (EC50) at 48 h in the data set on P-gp [5] of 46 µM.

With `Cn1c(=O)c2c(ncn2C)n(C)c1=O` [Caffeine, caffeine], the “plasma concentration, range” value in data set [6] (after 250 mg dose) was 25 to 130 µM. In addition, the “increase in P-gp activity” value in the data set with P-gp [1] is 250–300%. For the same compound, a half-maximal effect in the data set on P-gp [5] (EC50 at 48 h) was put at 9.1 µM.

For the compound `CO[C@H]1/C=C/O[C@@]2(C)Oc3c(C)c(O)c4c(O)c(c(/C=N/N5CCN(C)CC5)c(O)c4c3C2=O)NC(=O)/C(C)=C\C=C\[C@H](C)[C@H](O)[C@@H](C)[C@@H](O)[C@@H](C)[C@H](OC(C)=O)[C@@H]1C` [Rifampicin], the “plasma concentrations, range” value in data set [6] (following 600 mg dose) was 5 to 38 µM. The “increase in P-gp activity” value with P-gp [1] (LS-180 cells, 48 h, over the range 5–100 μM) is given as 60–290%. In the data set with P-gp [5], this compound gave an EC50 at 48 h of 5 µM.

Source of the values: paper PMC3172709 (Journal of pharmacy & pharmaceutical sciences : a …, 2011).
